From patent US5648366A, “Substituted pyrrolidin-3-yl-alkyl-piperidines” (Merrell Pharmaceuticals Inc., priority 1995, dated 1997)
Counter-ions that a name gives are not always drawn.

Key:
NK1 and NK2 receptors = test: Antagonism of capsaicin aerosol induced respiratory effects in conscious guinea pigs; format: in vivo, guinea pig; details: for SRE NUMBER (coughs/gasps): 19 min capsaicin exposure; for SRE NUMBER (coughs/gasps) / DYSPNEA ONSET / MAXIMUM PRESSURE INCREASE: mean and SEM; for DYSPNEA INCIDENCE / DYSPNEA ONSET / MAXIMUM PRESSURE INCREASE: capsaicin aerosol 0.001%; for antagonism of effects of capsaicin aerosol (in words): administered orally; for inhibition of endogenous tachykinins released by capsaicin aerosol (in words): guinea pig, in vivo
Experimental: (§1) ANTAGONISM OF NKA AND CAPSAICIN INDUCED R[…] IN CONSCIOUS GUINEA PIGS
(§2) In vivo experiments were performed using male Duncan Hartley guinea pigs (250-350 g). Changes in conscious breathing patterns were monitored in four animals simultaneously using modified whole body plethysmography consisting of four small plexiglass boxes each connected to a reference box via Validyne DP 45-16 differential pressure transducers. The 4 boxes were equipped with an air supply line (also used for aerosol delivery) and an exhaust air line. Supply and exhaust lines were of the same length and narrow bore and arose from a common supply chamber and vented to a common exhaust chamber. This system was used to ensure that fluctuations in supply air and atmospheric pressure would remain in phase and be eliminated from the net signal by the differential pressure transducers. The analog pressure signals were digitalized via a Data Translation DT2821 A to D board. Data were collected at a rate of 100 samples/second/animal. Each cycle of pressure change was analyzed using the following parameters: rising and falling slope determined between minimum and maximum pressures, the ratio of rising over falling slope, and the magnitude of the change between initial trough pressure and peak cycle pressure. Using these values (and observing the animals) the pressure cycles were characterized into normal breaths, forced exhalations (apparent by abdominal heaving), significant respiratory events (SREs; usually coughs, less often sneezes or gasps which were characterized by transient, extremely large pressure increases which were distinguishable from noise) and movement/noise with a PCAT 286 running a System V UNIX operating system. Dyspnea was defined as a significant, sustained increase in plethysmograph pressure which was associated with an observable shift to labored breathing in the animal.
(§3) During the course of a typical experiment in which airway responsiveness to various bronchoconstricting agents was examined, aerosols were delivered for 19 min (0.33 ml/min) using a DeVilbiss Ultraneb 99 ultrasonic nebulizer and animals monitored during this time. Prior to nebulization, 1 min of resting breathing was collected to establish a baseline pressure. […] The vehicle for nebulization of all bronchoconstrictive agents was phosphate buffered saline (pH 7.4) which elicited no r[…] itself. Putative tachykinin antagonists were administered either (i.v.) 20 min prior to onset of aerosol exposure or orally 1 hour prior to onset (to guinea pigs after an overnight fast).
Capsaicin aerosol is known to promote release of the tachykinins SP and NKA from sensory nerves in the airways of guinea pigs which may then act upon NK1 and NK2 receptors, respectively to elicit r[…]. The ability of the compounds of Example 3A; and Example 20A to attenuate capsaicin-induced r[…], shown in Table 7a, is inferred from their ability to reduce incidence of dyspnea, prolong the onset of the response and reduce the number of coughs/gasps which occur during aerosol exposure.

NK1 receptor = molecular target: T1, NK1 receptor (Homo sapiens, UniProt P25103); test: Antagonism of NK1 receptor mediated (SP-induced) phosphatidylinositol turnover in UC11 cells; format: cell-based; details: UC11 cells, SP; for NK-1 RECEPTOR -SLOPE: Schild analysis; for NK-1 RECEPTOR pA2: Schild analysis of 2-3 experiments, 95% confidence limits on next line
T1 construct: endogenous in cells; host or cells: UC11 cells
T1 sequence (P25103 whole entry): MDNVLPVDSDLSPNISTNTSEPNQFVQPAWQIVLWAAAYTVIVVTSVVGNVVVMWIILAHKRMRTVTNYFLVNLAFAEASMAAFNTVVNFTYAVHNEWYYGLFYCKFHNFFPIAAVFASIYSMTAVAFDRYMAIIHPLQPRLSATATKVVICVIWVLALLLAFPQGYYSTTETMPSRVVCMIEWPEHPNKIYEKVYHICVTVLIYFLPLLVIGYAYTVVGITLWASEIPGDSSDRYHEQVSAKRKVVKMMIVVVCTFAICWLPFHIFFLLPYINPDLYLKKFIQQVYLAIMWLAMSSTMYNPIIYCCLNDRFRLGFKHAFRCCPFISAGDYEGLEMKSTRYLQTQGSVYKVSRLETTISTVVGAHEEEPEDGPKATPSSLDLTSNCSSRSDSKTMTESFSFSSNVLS
Experimental: (§4) ANTAGONISM OF NK1 AND NK2 RECEPTOR MEDIATED PHOSPHATID[…]
(§5) Tachykinin-mediated inositol phosphate accumulation was measured in UC11 or SKLKB82#3 cells in the presence and absence of NK1 or NK2 receptor antagonists, respectively. Tissues were incubated in Krebs-Henseleit buffer at 37° C. with 95% O2 -5% CO2 gassing. Tissues were then incubated with fresh buffer containing 100 μCi of myo-[2-^3 H(N)] inositol at 37° C. for 60 min with gentle gassing. After washing twice in 5 ml room temperature buffer containing 10 mM LiCl, tissues were incubated for 30 min at room temperature with a buffer change at 15 min. Buffer was removed and Krebs-Henseleit buffer (containing 40 μg/ml bacitracin, 4 μg/ml each of leupeptin and chymostatin, 0.1% bovine serum albumin and 10 mM each of thiorphan and LiCl) added. After 15 min, SP was added to UC11 cells or NKA to SKLKB82#3 cells at various concentrations to start the reaction. After incubation for 60 min at room temperature the reaction was terminated by addition of 930 μl chloroform: methanol (1:2 by volume) to each tube, followed by 310 μl chloroform and 310 μl doubly distilled water. Samples were vortexed, centrifuged, and 0.9 ml of the aqueous (top) phase removed and added to 2 ml ddH2 O. The mixture was vortexed and loaded onto a 50% Bio-Rad AG 1-X8 (formate form, 100-200 mesh) exchange column (Bio-Rad Laboratories, Hercules, Calif.). The columns were washed, in order, with: 1) 10 ml doubly distilled water, 2) 5 ml of 5 mM disodium tetraborate/60 mM sodium formate, and 3) 5 ml of 1M ammonium formate/0.1M formic acid. The third elution was collected and 1 ml counted in 7 ml scintillation fluid. A 50 μl aliquot of the organic (bottom) phase was removed, dried in a scintillation vial and counted in 7 ml scintillation fluid.
(§6) The ratio of DPM in the aqueous phase aliquot (total inositol phosphates) to the DPM in the 50 μl organic phase aliquot (total [^3 H]inositol incorporated) was calculated for each sample. Data are expressed as a percent of agonist-induced accumulation of [^3 H]-inositol phosphates over basal levels. The ratios in the presence of test compound and/or standards were compared to the ratios for control samples (i.e. no stimulating agonist). Dose-response graphs were constructed and the abilities of the test compounds to inhibit tachykinin-induced phosphatidyinositol turnover determined with the aid of a computer program. […] Data is expressed as percent stimulation of total inositol phosphate accumulation over basal levels and normalized to the maximum response produced by SP. […] Schild analysis is performed using dose response curves (such as those presented in FIGS. 1a and 1b) to obtain a value indicative of the strength of a competitive antagonist and is expressed as the pA2, which is the negative logarithm of the molar concentration of antagonist which reduces the effect of a dose of agonist to one-half of that expected at the dose of agonist.

NK2 receptor [1] = molecular target: T2, NK2 receptor (Bos taurus, UniProt P05363); test: Antagonism of NK2 receptor mediated (NKA-induced) phosphatidylinositol turnover in SKLKB82#3 cells; format: cell-based; details: SKLKB82#3 cells, NKA; for NK-2 RECEPTOR -SLOPE: Schild analysis; for NK-2 RECEPTOR pA2: Schild analysis of 2-3 experiments, 95% confidence limits on next line
T2 construct: expressed in transfected cells; host or cells: SKLKB82#3 cells (murine B82 fibroblasts by own knowledge)
T2 sequence (P05363 1-384): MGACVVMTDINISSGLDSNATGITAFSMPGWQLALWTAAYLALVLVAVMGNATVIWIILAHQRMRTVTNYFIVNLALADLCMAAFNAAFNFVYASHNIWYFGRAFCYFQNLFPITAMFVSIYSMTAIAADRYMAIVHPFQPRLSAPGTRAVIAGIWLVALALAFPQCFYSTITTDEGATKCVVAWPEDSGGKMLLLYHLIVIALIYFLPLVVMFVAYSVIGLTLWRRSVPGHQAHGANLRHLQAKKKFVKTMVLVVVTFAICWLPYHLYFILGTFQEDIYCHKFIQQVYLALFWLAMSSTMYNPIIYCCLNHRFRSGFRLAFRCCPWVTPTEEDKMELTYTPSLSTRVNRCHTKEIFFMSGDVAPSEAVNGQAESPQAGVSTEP
Experimental: as §4, §5, §6

NK2 receptor [2] = test: Antagonism of NKA aerosol induced respiratory effects in conscious guinea pigs; format: in vivo, guinea pig; details: 20 min prior to NKA aerosol (0.05%); for DYSPNEA ONSET: mean and SEM
Experimental: as §1, §2, §3
Table 6 illustrates the effects of the compounds of Example 3; Example 20A; and Example 5A on r[…] induced by NKA aerosol. […] These effects were dose dependent i.e. the higher the dose of compound, the greater attenuation of NKA-mediated effects.

[3] = 25 mg/kg oral gavage 1 hr prior
[4] = 50 mg/kg oral gavage 1 hr prior
[5] = 100 mg/kg oral gavage 1 hr prior

Row | Compound | SRE NUMBER (coughs/gasps) (NK1 and NK2 receptors; [3]) | DYSPNEA INCIDENCE (NK1 and NK2 receptors; [3]) [%] | DYSPNEA ONSET (NK1 and NK2 receptors; [3]) [s] | MAXIMUM PRESSURE INCREASE (NK1 and NK2 receptors; [3]) [mmH2 O] | SRE NUMBER (coughs/gasps) (NK1 and NK2 receptors; [4]) | DYSPNEA INCIDENCE (NK1 and NK2 receptors; [4]) [%] | DYSPNEA ONSET (NK1 and NK2 receptors; [4]) [s] | MAXIMUM PRESSURE INCREASE (NK1 and NK2 receptors; [4]) [mmH2 O] | antagonism of effects of capsaicin aerosol (in words) (NK1 and NK2 receptors) | inhibition of endogenous tachykinins released by capsaicin aerosol (in words) (NK1 and NK2 receptors) | NK-1 RECEPTOR -SLOPE (NK1 receptor) | NK-1 RECEPTOR pA2 (NK1 receptor) | NK-2 RECEPTOR -SLOPE (NK2 receptor [1]) | NK-2 RECEPTOR pA2 (NK2 receptor [1]) | further results
1 | COc1cccc(OC)c1C(=O)N1CCC(CCN2CCC(C(N)=O)(c3ccccc3)CC2)(c2ccc(Cl)c(Cl)c2)C1 (stereo not drawn) [Example 5] | 4.4 ± 1.2 | 66.7 | 253 ± 47 | 0.7 ± 0.1 | 4.9 ± 1.9 | 85.7 | 384 ± 85 | 0.5 ± 0.1 | antagonize the effects of capsaicin aerosol when administered orally | inhibit the endogenous tachykinins released by capsaicin aerosol | – | – | – | – | –
2 | COc1cccc(OC)c1C(=O)N1CCC(CCN2CCC(C(N)=O)(c3ccccc3)CC2)(c2ccc(Cl)c(Cl)c2)C1 (stereo not drawn) [Example 5A, 1-[2-[3-(3,4-dichloro-phenyl)-1-(2,6-dimethoxy-benzoyl)-pyrrolidin-3-yl]-ethyl]-4-phenyl-piperidine-4-carboxylic acid amide hydrochloride] | – | – | – | – | – | – | – | – | – | – | 1.17 | 7.32 | 1.11 | 7.35 | DYSPNEA INCIDENCE (NK2 receptor [2]; 5 mg/kg): 60%; DYSPNEA ONSET (NK2 receptor [2]; 5 mg/kg): 654 ± 37 s; DYSPNEA INCIDENCE (NK2 receptor [2]; 10 mg/kg): 54%; DYSPNEA ONSET (NK2 receptor [2]; 10 mg/kg): 608 ± 65 s
3 | COc1cc(C(=O)N2CCC(CCN3CCC(C(N)=O)(c4ccccc4)CC3)(c3ccc(Cl)c(Cl)c3)C2)cc(OC)c1OC (racemic) [Example 3A, 1-[2-[3-(3,4-dichloro-phenyl)-1-(3,4,5-trimethoxy-benzoy1)-pyrrolidin-3-yl]-ethyl]-4-phenyl-piperidine-4-carboxylic acid amide hydrochloride] | 4.6 ± 1.0 | 80 | 424 ± 120 | 0.7 ± 0.2 | 2.8 ± 0.8 | 70 | 434 ± 152 | 0.4 ± 0.1 | antagonize the effects of capsaicin aerosol when administered orally | inhibit the endogenous tachykinins released by capsaicin aerosol | 0.90 | 7.91 | 0.73 | 8.75 | SRE NUMBER (coughs/gasps) (NK1 and NK2 receptors; 10 mg/kg intravenous): 8.50 ± 1.9; DYSPNEA INCIDENCE (NK1 and NK2 receptors; 10 mg/kg intravenous): 89%; DYSPNEA ONSET (NK1 and NK2 receptors; 10 mg/kg intravenous): 480 ± 80 s; MAXIMUM PRESSURE INCREASE (NK1 and NK2 receptors; 10 mg/kg intravenous): 0.83 ± 0.18 mmH2 O; SRE NUMBER (coughs/gasps) (NK1 and NK2 receptors; [5]): 2.1 ± 0.5; DYSPNEA INCIDENCE (NK1 and NK2 receptors; [5]): 50%; DYSPNEA ONSET (NK1 and NK2 receptors; [5]): 360 ± 120 s; MAXIMUM PRESSURE INCREASE (NK1 and NK2 receptors; [5]): 0.4 ± 0.1 mmH2 O
4 | COc1cc(C(=O)N2CCC(CCN3CCC(C(N)=O)(c4ccccc4)CC3)(c3ccc(Cl)c(Cl)c3)C2)cc(OC)c1OC (single isomer, unassigned; (+)) [Example 20, (+)-1-[2-[3-(3,4-dichloro-phenyl)-1-(3,4,5-trimethoxy-benzoyl)-pyrrolidin-3-yl]-ethyl]-4-phenyl-piperidine-4-carboxylic acid amide] | – | – | – | – | – | – | – | – | – | – | 1.03 | – | 1.00 | – | –
